Assay: mean ionic activity coefficient (dimensionless); mn = molality of the nth substance listed, in mol/kg
Settings: 298.15 K, 100 kPa, Liquid, potentiometry

O=[N+]([O-])[O-].[Na+] [sodium nitrate] + O
Settings	mean ionic activity coefficient
m1 = 0.01	0.893
m1 = 0.05	0.811
m1 = 0.1	0.766
m1 = 0.2001	0.697
m1 = 0.2999	0.663
m1 = 0.4	0.638
m1 = 0.5001	0.616
m1 = 0.5999	0.576
m1 = 0.7001	0.565
m1 = 0.7998	0.545
m1 = 0.9	0.518
m1 = 0.9999	0.502

— the NIST ThermoML archive (doi:10.1021/acs.jced.6b00790)
